# Read-outs that look alike come from different tables or passages of the source.
# Assays:
# PDK1 kinase = target: T1, PDK1 kinase (Homo sapiens, UniProt O15530); experiment: PDK1 Kinase Alpha Screen Assay; assay type: biochemical; conditions: read-out: PDK1 IC50
# T1 sequence (O15530 1-556): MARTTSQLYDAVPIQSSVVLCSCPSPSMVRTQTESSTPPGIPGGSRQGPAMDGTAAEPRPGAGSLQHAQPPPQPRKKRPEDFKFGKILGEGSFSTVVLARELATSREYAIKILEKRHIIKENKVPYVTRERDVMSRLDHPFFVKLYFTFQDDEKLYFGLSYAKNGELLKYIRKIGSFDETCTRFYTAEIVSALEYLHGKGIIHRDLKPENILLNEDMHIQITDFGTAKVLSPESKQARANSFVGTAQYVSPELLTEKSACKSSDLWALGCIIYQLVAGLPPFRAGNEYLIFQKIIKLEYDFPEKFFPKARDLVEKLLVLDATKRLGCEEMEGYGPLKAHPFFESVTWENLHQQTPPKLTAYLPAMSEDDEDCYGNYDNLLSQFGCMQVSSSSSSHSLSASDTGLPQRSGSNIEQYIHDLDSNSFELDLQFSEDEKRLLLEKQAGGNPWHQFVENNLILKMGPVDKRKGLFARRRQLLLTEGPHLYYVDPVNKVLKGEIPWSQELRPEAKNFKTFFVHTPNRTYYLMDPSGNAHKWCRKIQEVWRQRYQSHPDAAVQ
# Method in brief: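 Compound in DMSO added to PDK1-4 peptide; PDK1/ATP mix starts reaction (final 50 nM peptide, 10 uM ATP). Runs 3-18 hours, stopped with 90 mM EDTA buffer. Antibody/bead mix added, developed overnight at room temperature, then AlphaScreen signal read.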
# A2780 cells = experiment: Cell Proliferation Assay (Cell Titer Glo), A2780; assay type: cell-based; conditions: Homo sapiens, read-out: CPEC50 A2780
# Protocol: IV. Cell Proliferation Assay Protocol:
# A2780, PC-3, or PC3MM cells were seeded at 1000 cells/well in 100 μL/well (10.000 cells/mL) growth media in 96-well plates. Cells were allowed to adhere to the bottom of plates for 3-5 hours in a 37° C. 5% CO2 incubator. Compounds were dissolved in DMSO and then transferred to the cell plates. The cells were incubated with the compounds for 3 days in a 37° C. 5% CO2 incubator. The growth medium containing the compounds was then removed from the cells and fresh medium was added, followed by 100 μL of Cell Titer Glo assay reagent (Promega). This mixture was shaken for 1 minute and then incubated without shaking for 10 minutes. Activity determinations for the compounds were made by detection on a Trilux Instrument.
# [1] = Cell Proliferation Assay, A2780
# [2] = 72 h, A2780 cells, 3 days incubation
# [3] = cell proliferation, A2780 cells
SMILES,IC50 (PDK1 kinase; PDK1 Kinase Alpha Screen Assay),EC50 (A2780 cells; [1]),IC50 (PDK1 kinase),EC50 (A2780 cells; [2]),also measured
"CC(=O)Nc1ccc(COc2cccc3cnc(Nc4ccc(S(N)(=O)=O)cc4)nc23)cc1 [Compound 514, N-(4-((2-(4-sulfamoylphenylamino)quinazolin-8-yloxy)methyl)phenyl)acetamide]",< 5 µM,< 5 µM,,,
"CC(C)(C(N)=O)C(=O)NCCOc1cccc2cnc(Nc3ccccc3)nc12 [Compound 508, 2,2-dimethyl-N1-(2-(2-(phenylamino)quinazolin-8-yloxy)ethyl)malonamide]",5 to 10 µM,5 to 10 µM,,,
"CN1CCC(NC(=O)c2ccc3cnc(Nc4ccc(S(N)(=O)=O)cc4)nc3c2)CC1 [Compound 119, 2-(4-Sulfamoyl-phenylamino)-quinazoline-7-carboxylic acid (1-methyl-piperidin-4-yl)-amide]",,,< 5 µM,5 to 10 µM,
NS(=O)(=O)c1ccc(Nc2ncc3ccc(-c4ccc(N5CCOCC5)nc4)cc3n2)cc1 [Compound 881],< 5 µM,,,,EC50 (A2780 cells; [3]): < 5 µM
"NS(=O)(=O)c1ccc(Nc2ncc3ccc(-c4nccs4)c(OC4CCNCC4)c3n2)cc1 [Compound 862, 4-(8-(piperidin-4-yloxy)-7-(thiazol-2-yl)quinazolin-2-ylamino)benzenesulfonamide]",< 5 µM,,,,EC50 (A2780 cells; [3]): < 5 µM
"CN(C)[C@H]1CCN(C(=O)c2cccc3cnc(Nc4ccc(S(N)(=O)=O)cc4)nc23)C1 [Compound 143, 4-[8-((S)-3-Dimethylamino-pyrrolidine-1-carbonyl)-quinazolin-2-ylamino]-benzenesulfonamide]",,,< 5 µM,5 to 10 µM,
"Cc1n[nH]c(C)c1-c1ccc2cnc(Nc3ccc(S(N)(=O)=O)cc3)nc2c1 [Compound 865, 4-(7-(3,5-dimethyl-1H-pyrazol-4-yl)quinazolin-2-ylamino)benzenesulfonamide]",< 5 µM,,,,EC50 (A2780 cells; [3]): < 5 µM
"CC(C)NC(=O)c1ccc(Nc2ncc3cccc(OC(C)C)c3n2)cc1 [Compound 516, 4-(8-isopropoxyquinazolin-2-ylamino)-N-isopropylbenzamide]",< 5 µM,< 5 µM,,,
"NS(=O)(=O)c1ccc(Nc2ncc3cc(Br)cc(O)c3n2)cc1 [Compound 388, 4-(6-bromo-8-hydroxyquinazolin-2-ylamino)benzenesulfonamide]",< 5 µM,< 5 µM,,,
"NS(=O)(=O)c1ccc(Nc2ncc3cccc(CN4CCCC4)c3n2)cc1 [Compound 903, 4-(8-(pyrrolidin-1-ylmethyl)quinazolin-2-ylamino)benzenesulfonamide]",< 5 µM,,,,EC50 (A2780 cells; [3]): < 5 µM
"CNS(=O)(=O)Cc1ccc(Nc2ncc3cccc(OC)c3n2)cc1 [Compound 498, 1-(4-(8-methoxyquinazolin-2-ylamino)phenyl)-N-methylmethanesulfonamide]",< 5 µM,5 to 10 µM,,,
"NS(=O)(=O)c1ccc(Nc2ncc3cccc(OC4CN5CCC4CC5)c3n2)cc1 (stereo not shown) [Compound 33, 4-[8-(1-Aza-bicyclo[2.2.2]oct-3-yloxy)-quinazolin-2-ylamino]-benzenesulfonamide]",,,< 5 µM,< 5 µM,
"NS(=O)(=O)c1ccc(Nc2ncc3cccc(C(=O)NC4CCNCC4)c3n2)cc1 [Compound 142, 2-(4-Sulfamoyl-phenylamino)-quinazoline-8-carboxylic acid piperidin-4-ylamide]",,,< 5 µM,5 to 10 µM,
"NS(=O)(=O)c1ccc(Nc2ncc3ccc(OCC4CCNCC4)cc3n2)cc1 [Compound 631, 4-(7-(piperidin-4-ylmethoxy)quinazolin-2-ylamino)benzenesulfonamide]",< 5 µM,< 5 µM,,,
"NS(=O)(=O)c1ccc(Nc2ncc3cccc(OCCN4CCOCC4)c3n2)cc1 [Compound 510, 4-(8-(2-mropholinoethoxy)quinazolin-2-ylamino)benzenesulfonamide]",< 5 µM,< 5 µM,,,
"CN1CC[C@H](Oc2cccc3cnc(Nc4ccc(S(N)(=O)=O)cc4)nc23)C1 [Compound 34, 4-[8-((S)-1-Methyl-pyrrolidin-3-yloxy)-quinazolin-2-ylamino]-benzenesulfonamide]",,,< 5 µM,< 5 µM,

SMILES,IC50 (PDK1 kinase; PDK1 Kinase Alpha Screen Assay),EC50 (A2780 cells; [1]),IC50 (PDK1 kinase),EC50 (A2780 cells; [2]),also measured
"NS(=O)(=O)c1ccc(Nc2ncc3cccc(C(=O)N4CCCC4)c3n2)cc1 [Compound 113, 4-[8-(Pyrrolidine-1-carbonyl)-quinazolin-2 ylamino]-benzenesulfonamide]",,,< 5 µM,5 to 10 µM,
"CC(=O)NS(=O)(=O)c1ccc(Nc2ncc3cccc(OC(C)C)c3n2)cc1 [Compound 312, N-(4-(8-isopropoxyquinazolin-2-ylamino)phenylsulfonyl)acetamide]",< 5 µM,5 to 10 µM,,,
"NC(=O)c1ccc2cnc(Nc3ccc(S(N)(=O)=O)cc3)nc2c1 [Compound 564, 2-(4-sulfamoylphenylamino)quinazoline-7-carboxamide]",< 5 µM,< 5 µM,,,
"CC(C)CCn1cc(-c2ccc3cnc(Nc4ccc(S(N)(=O)=O)cc4)nc3c2)cn1 [Compound 883, 4-(7-(1-isopentyl-1H-pyrazol-4-yl)quinazolin-2-ylamino)benzenesulfonamide]",< 5 µM,,,,EC50 (A2780 cells; [3]): < 5 µM
"Nc1ccc(-c2ccc3cnc(Nc4ccc(S(N)(=O)=O)cc4)nc3c2-c2ccc(N)nc2)cn1 [Compound 900, 4-(7,8-bis(6-aminopyridin-3-yl)quinazolin-2-ylamino)benzenesulfonamide]",< 5 µM,,,,EC50 (A2780 cells; [3]): 5 to 10 µM
"NS(=O)(=O)c1ccc(Nc2ncc3ccc(-c4ccncc4)c(OC4CCNCC4)c3n2)cc1 [Compound 20, 4-[8-(Piperidin-4-yl-oxy)-7-pyridin-4-yl-quinazolin-2-ylamino]-benzenesulfonamide]",,,< 5 µM,< 5 µM,
"COCCN1CCN(C(=O)c2ccc3cnc(Nc4ccc(S(N)(=O)=O)cc4)nc3c2)CC1 [Compound 116, 4-{7-[4-(2-Methoxy-ethyl)-piperazine-1-carbonyl]-quinazolin-2-ylamino}-benzenesulfonamide]",,,10 to 25 µM,5 to 10 µM,
"CC(C)Oc1cccc2cnc(Nc3ccc(S(=O)(=O)N4CCN(C)CC4)cc3)nc12 [Compound 499, 8-isopropoxy-N-(4-(4-methylpiperazin-1-ylsulfonyl)phenyl)quinazolin-2-amine]",< 5 µM,5 to 10 µM,,,
"NS(=O)(=O)c1ccc(Nc2ncc3ccc(-c4ccncc4)c(OC4CCNCC4)c3n2)cc1 [Compound 855, 4-(8-(piperidin-4-yloxy)-7-(pyridin-4-yl)quinazolin-2-ylamino)benzenesulfonamide]",< 5 µM,,,,EC50 (A2780 cells; [3]): 5 to 10 µM
"NS(=O)(=O)c1ccc(Nc2ncc3cccc(-c4ccnc(N5CCS(=O)(=O)CC5)c4)c3n2)cc1 [Compound 107, 4-{8-[2-(1,1-Dioxo-1 lambda*6*-thiomorpholin-4-yl)-pyridin-4-yl]-quinazolin-2-ylamino}-benzenesulfonamide]",,,< 5 µM,< 5 µM,
"CN(C)CCOc1ccc2cnc(Nc3ccc(S(N)(=O)=O)cc3)nc2c1 [Compound 630, 4-(7-(2-(dimethylamino)ethoxy)quinazolin-2-ylamino)benzenesulfonamide]",< 5 µM,5 to 10 µM,,,
"NS(=O)(=O)c1ccc(Nc2ncc3ccc(-c4cn[nH]c4)c(OC4CCNCC4)c3n2)cc1 [Compound 859, 4-(8-(piperidin-4-yloxy)-7-(1H-pyrazol-4-yl)quinazolin-2-ylamino)benzenesulfonamide]",< 5 µM,,,,EC50 (A2780 cells; [3]): < 5 µM
"NS(=O)(=O)c1ccc(Nc2ncc3cccc(-c4cn[nH]c4)c3n2)cc1 [Compound 104, 4-[8-(1H-Pyrazol-4-yl)-quinazolin-2-ylamino]-benzenesulfonamide]",,,< 5 µM,< 5 µM,
"CC(C)Oc1cccc2cnc(Nc3ccc(C(N)=O)cc3)nc12 [Compound 506, 4-(8-isopropoxyquinazolin-2-ylamino)benzamide]",< 5 µM,< 5 µM,,,
"NS(=O)(=O)c1ccc(Nc2ncc3cccc(CNC4CCCCC4)c3n2)cc1 [Compound 921, 4-(8-((cyclohexylamino)methyl)quinazolin-2-ylamino)benzenesulfonamide]",,,< 5 µM,,EC50 (A2780 cells; A2780 cells): < 5 µM
"NS(=O)(=O)c1ccc(Nc2ncc3cccc(-c4ccnc(N5CCOCC5)c4)c3n2)cc1 [Compound 105, 4-[8-(2-Morpholin-4-yl-pyridin-4-yl)-quinazolin-2-ylamino]-benzenesulfonamide]",,,< 5 µM,5 to 10 µM,

# — US7932262B2 (Novartis AG, priority 2006, dated 2011)
